From patent US20260069728A1, “MULTI-TARGETING COMPOUND AND USE THEREOF” (Chengdu Shetai Medical Technology Co., Ltd., priority 2023, published 2026)
Read-outs that look alike come from different tables or passages of the source.

Tests used:
[1] = Isoelectric point (PI) measurement; type: physicochemical
[2] = test system: SUM149PT human breast cancer cell line; test: Cell uptake and inhibition assay, SUM149PT; type: cell-based; conditions: for cell uptake, comparison of non-inhibition, FAP single, CXCR4 single and dual inhibition groups (in words): FAPI-04 and T140 as inhibitors; for cell uptake over incubation time (in words): non-inhibition group, 15-120 minutes
Experimental: (§1) The cell lines involved in the cell experiments in the test examples include: SUM149PT human breast cancer cell line, HUTU-80 human duodenal adenocarcinoma cell line, and U-118 MG human brain astrocytoma/glioblastoma cell line.
(§2) SUM149PT: Complete medium was formulated using DMEM high-glucose medium, 10% FBS, and a penicillin-streptomycin solution. The cells were cultured in a constant temperature incubator at 37° C. with 5% CO2. The culture medium was regularly replaced, and the cells were passaged. The culture medium was generally changed every 2 to 3 days. The growth of the tumor cells was observed daily under a microscope, including monitoring cell growth status, checking for adherence, examining cell morphology for any abnormalities, checking for contamination, and observing medium color for any abnormalities. Cells were passaged when they reached 80-90% confluence.
(§3) When cell confluence in the culture flask reached 80%, the cells were digested and centrifuged, and the supernatant was removed. An appropriate amount of medium was added to dilute so that each well contained 500 μL of medium for plating. After thorough mixing by pipetting, the cell suspension was seeded into a 24-well plate at a density of 5×10^5 cells per well. The plate was then placed into the incubator for continued growth. The cells were ready for cellular experiments when they reached 80% confluence.
(§4) (1) The cell uptake assay established four incubation time points: 15, 30, 60, and 120 minutes, respectively. For each time point, four groups were set up: non-inhibition group, a first single inhibition group (FAP single inhibition), a second single inhibition group (CXCR4/GRPR/αvβ3 single inhibition), and a dual inhibition group (FAP inhibitor+CXCR4/GRPR/αvβ3 inhibitor). Each group at each time point was set up with 3 triplicate wells.
(§5) (2) Cells were plated into a 24-well plate according to the cell plating procedure described above.
(§6) (3) The original culture medium was removed from the 24-well plate. Then, 400 μL of 100 mg/mL skimmed milk solution was added to each well for blocking for one hour. After removing the skimmed milk solution, each of the wells was washed three times by adding 400 μL of PBS solution. Subsequently, 146 μL of FBS-free medium was added to each well. Next, the non-inhibition group received 4 μL of cold PBS per well, while the first single inhibition group, the second single inhibition group, and the dual inhibition group received the following additions per well according to Table 3: 2 μL of non-radiolabeled first single inhibitor solution and 2 μL of cold PBS: 2 μL of non-radiolabeled second single inhibitor solution and 2 μL of cold PBS; 2 μL of non-radiolabeled first single inhibitor solution (10 mM) and 2 μL of non-radiolabeled second single inhibitor solution (10 mM). The plate was incubated at room temperature for one hour.
(§7) (4) The ^68Ga- and ^177Lu-labeled radioactive ligands were formulated by adding FBS-free medium to achieve a radioligand system concentration of 20 nM. Then, 50 μL of this radioligand system was added to each well. Each group was incubated according to the designated time points: 15, 30, 60, and 120 minutes.
(5) After the incubation was complete, the supernatant was removed, and the wells were washed three times with 400 μL of PBS solution. Then, 200 μL of 1 M NaOH solution was added to each well for cell lysis. […] Each well was then washed once with 400 μL of PBS solution, and this wash solution was also added to the corresponding radioimmunoassay tubes.
(6) The radioactivity in the cells was measured using a γ counter. A bar graph was plotted using GraphPad Prism software. The inhibition rate for each inhibition group was calculated as follows: Inhibition Rate (%)=(1−[Radioactive Count of the Inhibition Group]/[Radioactive Count of the Non-inhibition Group])×100%. […]

[3] = test system: SUM149PT human breast cancer cell line; test: Cell saturation binding assay, SUM149PT; conditions: 68Ga-labeled compound
Experimental: (§8) (1) For the cell saturation binding assay, a total of 8 radiolabeled ligand concentrations were set at intervals within the anticipated range. For each concentration, there were 3 groups: the non-inhibition group, the first single inhibition group (FAP single inhibition group), and the second single inhibition group (CXCR4/GRPR/αvβ3 single inhibition group). For each concentration and each group, 3 replicate wells were established.
as §5
(§9) (3) The original culture medium was removed from the 24-well plate. Then, 400 μL of 100 mg/mL skimmed milk solution was added to each well for blocking for one hour. After removing the skimmed milk solution, each of wells was washed three times by adding 400 μL of PBS solution. Subsequently, 146 μL of FBS-free medium was added to each well. Next, the non-inhibition group received 4 μL of cold PBS per well, while the first single inhibition group and the second single inhibition group received the following additions per well according to Table 4: 2 μL of non-radiolabeled first single inhibitor solution and 2 μL of cold PBS; 2 μL of non-radiolabeled second single inhibitor solution and 2 μL of cold PBS. The plate was then incubated at room temperature for one hour.
(§10) (4) The ligands were radiolabeled with 68Ga using the labeling method described previously. Different volumes of FBS-free medium were added to formulate the radioligand systems at corresponding concentrations. Then, 50 μL of the corresponding concentration of the radioligand system was added to each well.
(§11) (5) The supernatant was removed, and the wells were washed three times with 400 μL of PBS. 200 μL of IM NaOH solution was added to each well for cell lysis. […] Each well was washed once with 400 μL of PBS solution, and the washings were sequentially added to the corresponding radioimmunoassay tubes.
(§12) (6) Radioactivity in the cells was measured using a γ counter. The equilibrium dissociation constant (KD) was obtained by fitting the curve using nonlinear regression analysis in GraphPad Prism software. KD is the drug concentration that causes half of the maximum effect (50% receptor occupancy).

[4] = test system: U-118 MG human brain astrocytoma/glioblastoma cell line; test: Cell uptake and inhibition assay, U-118 MG; type: cell-based; conditions: for cell uptake over incubation time (in words): all groups, 15-120 minutes; for cell uptake, comparison of non-inhibition, FAP single, integrin αvβ3 single and dual inhibition groups (in words): at 30 minutes, FAPI-04 and RGD as inhibitors
Experimental: as §1
as §2, with “U-118 MG:” for “SUM149PT:”
as §3, §4, §5, §6, §7
(5) After the incubation was complete, the supernatant was removed, and the wells were washed three times with 400 μL of PBS solution. Then, 200 μL of 1 M NaOH solution was added to each well for cell lysis. […]
(6) The radioactivity in the cells was measured using a γ counter. […]

[5] = test system: U-118 MG human brain astrocytoma/glioblastoma cell line; test: Cell saturation binding assay, U-118 MG; conditions: 68Ga-labeled compound
Experimental: as §8, §5, §9, §10, §11, §12

[6] = conclusion from inhibition groups
[7] = FAPI-04 solution, read-out: KD value, First single inhibition group (FAP single inhibition)
[8] = T140 solution (CXCR4 inhibitor), read-out: KD value, Second single inhibition group (CXCR4/GRPR/αvβ3 single inhibition)
[9] = read-out: KD value, Non-inhibition group
[10] = RGD solution (integrin αvβ3 inhibitor), read-out: KD value, Second single inhibition group (CXCR4/GRPR/αvβ3 single inhibition)

| Structure (SMILES) | PI range of series of peaks ([1]; unlabeled compound) | cell uptake, comparison of non-inhibition, FAP single, CXCR4 single and dual inhibition groups (in words) [2] | specific binding to CXCR4 protein (in words) [2, 6] | specific binding to fibroblast activation protein (in words) [2, 6] | cell uptake over incubation time (in words) [2] | KD values / binding affinity to the receptors (in words) [3] | Kd [3, 7] [nM] | Kd [3, 8] [nM] | Kd [3, 9] [nM] | behaviour of sample prepared in pure water during isoelectric point measurement ([1]; pure water) | Main peak's PI ([1]; unlabeled compound) | cell uptake over incubation time (in words) [4] | cell uptake, comparison of non-inhibition, FAP single, integrin αvβ3 single and dual inhibition groups (in words) [4] | KD values / binding affinity to the receptors (in words) [5] | Kd [5, 7] [nM] | Kd [5, 10] [nM] | Kd [5, 9] [nM] | specific binding to fibroblast activation protein and integrin αvβ3 (in words) [4, 6] |
| --- | --- | --- | --- | --- | --- | --- | --- | --- | --- | --- | --- | --- | --- | --- | --- | --- | --- | --- |
| CN1C(=O)[C@@H](Cc2ccc(O)cc2)NC(=O)CNC(=O)[C@H](Cc2ccc3ccccc3c2)NC(=O)[C@H](CCCNC(=N)N)NC(=O)[C@H]1CCCNC(=O)c1ccc(CNC(=O)[C@H](CCCCNC(=O)CN2CCN(CC(=O)O)CCN(CC(=O)O)CCN(CC(=O)O)CC2)NC(=O)CCC(=O)NCCOCCOCC(=O)NCCOCCOCC(=O)N2CCN(CCCOc3ccc4nccc(C(=O)NCC(=O)N5CC(F)(F)C[C@H]5C#N)c4c3)CC2)cc1 [SDYD05, DOTA-FAPI-Pentixafor] | 6.617-7.126 | non-inhibition group exhibited the highest cell uptake, followed by the FAP single inhibition group, while the dual inhibition group showed the lowest uptake rate | can rapidly and efficiently bind specifically to the CXCR4 protein | bind specifically to fibroblast activation protein to a certain extent | slowly increased and reached a plateau from 15 to 120 minutes | relatively low KD values | 0.373 ± 0.035 | 1.99 ± 0.312 | 0.217 ± 0.018 | – | – | – | – | – | – | – | – | – |
| CCCCCC(=O)N[C@@H]1CSCc2cc(CSCCNC(=O)COCCOCCNC(=O)COCCOCCNC(=O)CSC3CC(=O)N(CCC(=O)N[C@H](CCCCNC(=O)CN4CCN(CC(=O)O)CCN(CC(=O)O)CCN(CC(=O)O)CC4)C(=O)NCc4ccc(C(=O)NCCC[C@@H]5C(=O)N[C@@H](CCCNC(=N)N)C(=O)N[C@@H](Cc6ccc7ccccc7c6)C(=O)NCC(=O)N[C@H](Cc6ccc(O)cc6)C(=O)N5C)cc4)C3=O)cc(c2)CSC[C@@H](C(=O)O)NC(=O)[C@H](Cc2ccccc2)NC(=O)[C@H](CCC(N)=O)NC(=O)C([C@@H](C)O)NC(=O)[C@@H]2CCCN2C(=O)[C@@H]2CCCN2C1=O (stereo partly shown) [SDYD06] | – | from high to low, were as follows: non-inhibition group, FAP single inhibition group, CXCR4 single inhibition group, and dual inhibition group | – | – | slowly increased and reached a plateau from 15 to 120 minutes | relatively low KD values | 0.455 ± 0.056 | 0.173 ± 0.012 | 1.41 ± 0.213 | insoluble substance formed | – | – | – | – | – | – | – | – |
| N#C[C@@H]1CC(F)(F)CN1C(=O)CNC(=O)c1ccnc2ccc(OCCCN3CCN(C(=O)[C@H](CCCCNC(=O)CCN4C(=O)CC(SCC(=O)NCCOCCOCCOCCOCCC(=O)NCCCC[C@@H]5NC(=O)[C@@H](Cc6ccc(O)cc6)NC(=O)[C@H](CC(=O)O)NC(=O)CNC(=O)[C@H](CCCNC(=N)N)NC5=O)C4=O)NC(=O)CCC(C(=O)O)N4CCN(CC(=O)O)CCN(CC(=O)O)CCN(CC(=O)O)CC4)CC3)cc12 (stereo partly shown) [SDYD07] | – | – | – | – | – | – | – | – | – | – | 4.809 | increased significantly within the first 15 minutes, and then slowly increased | from high to low, were as follows: non-inhibition group, FAP single inhibition group, integrin αvβ3 single inhibition group, and dual inhibition group | relatively low KD values | 7.1 ± 1.06 | 7.62 ± 0.923 | 10.5 ± 1.87 | – |
| CCCCCC(=O)N[C@H]1CSCc2cc(CSCCNC(=O)[C@H](CCCCNC(=O)CCN3C(=O)CC(SCC(=O)NCCOCCOCCOCCOCCC(=O)NCCCC[C@@H]4NC(=O)[C@@H](Cc5ccc(O)cc5)NC(=O)[C@H](CC(=O)O)NC(=O)CNC(=O)[C@H](CCCNC(=N)N)NC4=O)C3=O)NC(=O)CCC(C(=O)O)N3CCN(CC(=O)O)CCN(CC(=O)O)CCN(CC(=O)O)CC3)cc(c2)CSC[C@@H](C(=O)O)NC(=O)[C@H](Cc2ccccc2)NC(=O)[C@H](CCC(N)=O)NC(=O)C([C@@H](C)O)NC(=O)[C@@H]2CCCN2C(=O)[C@@H]2CCCN2C1=O (stereo partly shown) [SDYD08] | – | – | – | – | – | – | – | – | – | – | 2.916 | increased significantly within the first 15 minutes | from high to low, were as follows: non-inhibition group, FAP single inhibition group, integrin αvβ3 single inhibition group, and dual inhibition group | relatively low KD values | 7.12 ± 0.558 | 10.5 ± 1.06 | 8.43 ± 0.475 | can specifically bind to fibroblast activation protein and integrin αvβ3 |
